From patent US10912815B2, “Inhibitors of mitochondrial fission and methods of use thereof” (The Board of Trustees of the Leland Stanford Junior …, priority 2011, dated 2021)
No end group written: not given here.

Columns and labels:
Drp1 = Drp1 translocation to mitochondria in SH-SY5Y cells (western blot of mitochondrial fractions); assay type: cell-based, human
Procedure: Cultured human SH-SY5Y neuronal cells were treated with peptide P110 (1 μM) for 30 min prior to 1 hr incubation in the absence or presence of MPP+(1-methyl-4-phenylpyridinium, a specific mitochondrial complex I inhibitor) (2 mM) or CCCP (carbonyl cyanide m-chloro phenyl hydrazone) (10 μM). Western blot analysis of mitochondrial fractions was determined by the indicated antibodies. VDAC was used as a loading control.
In another experiment, mitochondria were isolated from SH-SY5Y neuronal cells exposed to MPP+ in the absence or presence of P110. Mitochondrial fractions were subjected to Western blot analysis. The levels of Drp1, Fis1, Mff, Mfn1 (mitofisinl) and OPA1 in the mitochondrial fractions were determined. Voltage-dependent […] (VDAC), a marker of mitochondria, was used as internal loading controls. Quantitative data from three independent experiments are provided a the histogram, with data shown as mean±S.E (FIG. 3D).

SH-SY5Y cells [1] = assay: Mitochondrial membrane potential in SH-SY5Y cells (TMRM); assay type: cell-based, human; conditions: SH-SY5Y in the presence of MPP+ or CCCP, FIG. 6B
Procedure: The effects of MPP+ or CCCP on translocation of Drp1 in the absence and presence of P110 was measured using confocal microscopy. Cultured SH-SY5Y cells in black 96-well plate were treated with Drp1 peptide inhibitor P110 (1 μM) 30 min prior to treatment of MPP+ (2 mM) or CCCP (5 uM). After 2 hrs of treatment, cells were stained with MITOSOX™ (red mitochondrial superoxide indicator) (5 uM, for 10 min, mitochondrial ROS) or TMRM (0.5 uM, for 20 min, MMP) at 37° C. For total ROS detection, cells were treated with MPP+ or CCCP for 24 hrs. ROS level was measured by CM-H2DCFDA (1 μM for 30 min, Invitrogen). Cells were washed with PBS for three times. The detection was performed in a fluorescence microplate reader (Tecan, Infinite M1000) according to manufacturer's instructions. Measurements were normalized to the cell number counted using Hoechst staining.
Mitochondrial membrane potential was also determined using TMRM (tetramethylrhodamine methylester). […] Fluoresence detection was performed using black 96-well plates in a fluorescence microplate reader at 560 nm excitation and 690 nm emission and potential was assessed by quenching of the fluorescent signal. […] A kinetic change of mitochondrial superoxide production was determined by using MITOSOX™ (red mitochondrial superoxide indicator). […]

SH-SY5Y cells [2] = assay: Apoptosis markers on mitochondria of SH-SY5Y cells (western blot: NT-Bax, cytochrome c, Bcl-2); assay type: cell-based, human; conditions: MPP+ 2 mM 1 hour, FIG. 9A
Procedure: SH-SY5Y neuronal cells were treated with P110 followed by the exposure to MPP+(2 mM for 1 hour). Active form of Bax (NT-Bax), cytochrome c and Bcl-2 on the mitochondria were determined by western blot analysis with the indicated antibodies. Shown are representative data of three independent experiments. Quantification of the data are provided as mean±SE of three independent experiments.

SH-SY5Y cells [3] = assay: Autophagy marker LC3 in SH-SY5Y cells; assay type: cell-based, human; conditions: MPP+
Description: Autophagy is another consequence of excessive mitochondrial fission (Twig et al., 2008, EMBO J 27:433-446; Wikstrom et al., 2009, Int J Biochem Cell Biol 41:1914-1927). Autophagy can be measured by the induction of the autophagic marker LC3 (microtubule-associated protein 1, light chain 3, also known as ATG8). Cultured SH-SY5Y cells were stained by anti-LC3 antibodies and nuclei were stained by Hoechsts staining. A histogram (FIG. 9C) depicts the number of LC3-positive punctate/per cell in the indicated groups. The data are presented as the mean±S.E. of three independent experiments. Western blot analysis of LC3 I/II with anti-LC3 antibodies is shown and is presented as a histogram where the data are expressed as mean±S.E. of three independent experiments (FIG. 9D, left panel).

SH-SY5Y cells [4] = test system: SH-SY5Y cells
Procedure: Cell viability of stressed SH-SY5Y cells was measured by MTT assay.
In another experiment, Human SH-SY5Y cells were treated with Drp1 P108, P109 or P110 or Fis1 P111, P112 or P113 (0.5 μM) for 15 min followed by treatment with MPP+(1 mM for 24 hrs). The cell viability was then determined by MTT test.

## RRRQRRKKRGYGGDLLPRGS (RRRQRRKKRGYGGDLLPRGS-NH2) [P110]
Drp1; P110 1 μM 30 min before MPP+, CCCP, H2O2 or rotenone, FIG. 3A, 3B
  levels of Drp1 associated with the mitochondrial fractions under stress: abolished the increased levels of Drp1
Drp1; SH-SY5Y, MPP+, FIG. 3C, 3D
  cellular level and distribution of other mitochondrial dynamics-related proteins (MFN-1/2, OPA1, Fis1): did not affect
Drp1; SH-SY5Y, MPP+, p<0.01, n=3, FIG. 3C, 3D
  reduction of MPP+-induced translocation of Drp1 from cytosol to the mitochondria: more than 60%
SH-SY5Y cells [1]
  mitochondrial membrane potential (MMP): significantly recovered
SH-SY5Y cells [2]
  Bcl-2 levels on the mitochondria: improved decreased Bcl-2 levels
  accumulation of active Bax on the mitochondria: greatly reduced accumulation of active Bax
  release of cytochrome c from the mitochondria: blocked the release of cytochrome c
SH-SY5Y cells [3]; FIG. 9C
  number of LC3-positive puncti in the cells: reduced
SH-SY5Y cells [3]; FIG. 9D
  LC3 cleavage (LC3 I to LC3 II): reduced
SH-SY5Y cells [4]; peptides 0.5 μM 15 min, MPP+ 1 mM for 24 hrs, n=7-8, FIG. 9F
  mitochondrial damage and neuronal cell death (MTT): reduced mitochondrial damage and neuronal cell death
SH-SY5Y cells [4]; peptides 1 μM each, MPP+ 2 mM for 24 hours, FIG. 9E
  cell viability (MTT): improved cell viability
